Columns and labels:
[1] = tested on: 125I-labeled rat TGF binding to EGF receptors of A431 cells; assay: Binding of 125I-labeled rat TGF to A431 cells; parameters: species or system human
Protocol: was synthesized using the solid-phase technique of Ohgak et al. (1983) Journal of Immunol. Meth. 57, pp. 171-184. This oligopeptide was then coupled to keyhole limpet hemocyanin in accordance with the procedure of Baron et al. (1982) Cell 28, pp. 395-404, and used to immunize rabbits (Baron et al. (1982) Cell 28, pp. 395-404) and sheep (Lerner (1982) Nature 299, pp. 592-596). Antisera were assayed against peptide by a peroxidase-linked immunoassay (Kirkegaard and Perry Laboratories, Gaithersberg, Md.) and against homogeneous rat TGF (purified according to Example II above), by immunoprecipitation (Bister et al. (1980) J. Virol. 36, pp. 617-621) and Western blotting techniques (Burnett (1981) Analyt. Biochem. 112, pp. 195-203). Binding of ^125 I-labeled rat TGF and mouse EGF (Bethesda Research Labs, Bethesda, Md.) to A431 cells grown in 96-well microtiter plates was as described in Pross et al. (1977) Proc. Natl. Acad. Sci. U.S.A. 74, pp. 3918-3921.
Human epidermoid carcinoma A431 cells have in excess of 10^6 EGF receptors per cell (Fabricant et al. (1977) Proc. Natl. Acad. Sci. U.S.A. 74, pp. 565-569). TGF competes with EGF for binding to these receptors. Binding of ^125 I-labeled rat TGF to these cells was blocked by an excess of unlabeled EGF and by antiserum to peptide. […]

anti-KLH-peptide 1 IgG = assay: Solid phase RIA, 125I anti-KLH-peptide 1 IgG on BSA-peptide 1; assay type: binding, rabbit
Protocol: TGF peptide 1 was coupled to keyhole limpet hemocyanin (KLH) or bovine serum albumin (BSA) by thiol/maleimide linkage (King et al. (1979) J. Immunol. Methods 28, pp. 201-206). Carrier-peptide complexes were purified by gel filtration. An average of 60 moles peptide/mole KLH and 20 moles peptide/mole BSA was achieved. Rabbits were immunized with the KLH-peptide 1 conjugate by multiple subcutaneous (s.c.) and intramuscular (i.m.) injections of 2 mg protein in complete Freund's adjuvant. Rabbits were boosted s.c. every two weeks with the immunogen in incomplete Freund's adjuvant. The IgG fraction of the antiserum after 5 boosts was used for immunoassays and radiolabeled using Na^125 I (NEN) and Enzymobeads (Bio-Rad) to 4×10^5 cpm/μg protein. Polyvinyl chloride 96-well plates (Costar) were coated with 200 μg/mL BSA-peptide 1 conjugate and countercoated with 10% normal rabbit serum in phosphate-buffered saline. Plates were incubated for 4 hours at 37° C. with [^125 I]anti-KLH-peptide 1 IgG (50,000 cpm/well) in the presence or absence of inhibitors, washed and individual wells were counted.

[2] = tested on: antiserum against peptide III; assay: Radioimmunoassay, inhibition of precipitation of 125I-peptide III; assay type: binding, rabbit
Protocol: Rabbits were immunized by subcutaneous injection of 1 mg of conjugate injected subcutaneously at four separate sites. Two booster injections were administered at bi-weekly intervals following the initial injection. The serum used in this study was collected eighty days after the initial injection. An immunoglobulin fraction of this serum was prepared by ammonium sulfate precipitation. The product of antibodies specific for immunizing peptide was monitored with a solid phase enzyme-linked immunoabsorbent assay.
Reactants were mixed in a final volume of 50 microliters of a solution containing: 20 mM sodium phosphate, at pH 7.4; 200 mM NaCl: 40 mM dithiothreitol; 0.1% (w:v) BSA; 0.1% (w:v) NaN3 : ^125 I-peptide III; (10^4 cpm); antiserum at a final dilution of 1/15,000; and other additions, as specified. The reaction was initiated by the addition of antiserum and continued at 23° C. for 90 minutes. An equal volume of 10% formalin-fixed Staphalococcus A (Pansorbin, Calbiochem) was then added and incubation was continued for an additional 30 minutes at 23° C. The immunoadsorbant was removed by sedimentation through a cushion of 10% (w:v) sucrose and the amount of bound ^125 I-peptide III was determined using a gamma counter. Under these conditions, approximately 25% of ^125 I-peptide was bound by antibody in the absence of competitor. The amount of bound peptide III was corrected for non-specific binding measured in the absence of antibody (less than 5% of the total) and expressed as a percentage of maximal binding. Concentrations of competitors were expressed as the amount of peptide III required to give an equivalent inhibition of precipitation.

[3] = tested on: normal rat kidney fibroblasts, clone 49F; assay: Soft agar growth assay; assay type: cell-based; settings: tested with up to 10 μg
Protocol: The assay for colony growth in soft agar, using normal rat kidney fibroblasts, clone 49F, was performed as reported in Todaro et al. (1980) Proc. Natl. Acad. Sci. USA 77, pp. 5258-5262. Lyophilized samples to be tested were reconstituted in 0.5 ml of Dulbecco's modified Eagle's medium, supplemented with 10% calf serum. 1.5 ml of 0.5% (w/v) agar (Difco) in the supplemented medium and 0.5 ml of supplemented medium containing 2.3×10^4 cells were added. 2.3 ml of the resultant mixture were pipetted on a 2-ml base layer (0-5% agar in supplemented medium) in 60-mm Petri dishes (Falcon). The cells were incubated at 37° C. in a humidified 5% CO2 /95% air atmosphere. The assay was read unfixed and unstained at 5 days and at 10-14 days.

normal rat kidney cells = assay type: cell-based; settings: on a ng equivalent basis
EGF receptor = target: T1, EGF receptor (Homo sapiens, UniProt P00533); assay: 125I-EGF radioreceptor assay on formalin-fixed A431 human carcinoma cells; assay type: binding
T1 construct: subconfluent monolayers of formalin-fixed A431 human carcinoma cells; endogenous in cells; host or cells: A431 human carcinoma cells, formalin-fixed
Protocol: The fixed cells were washed twice with 0.5 ml of binding buffer (Dulbecco's modified Eagle's medium containing 1 mg/ml of bovine serum albumin and 50 mM 2-[bis(2-hydroxyethyl)amino]ethanesulfonic acid, pH 6.8).
TGF was quantitated in a radioreceptor assay based on receptor cross-reactivity with mouse submaxillary gland epidermal growth factor (mEGF).

fetal rat long bones = assay: Bone resorption in vitro, 45Ca release; assay type: cell-based
Protocol: Synthetic rat TGF was prepared as described above in Example V. Purity of the protein was confirmed by sodium dodecyl sulfate-polyacrylamide gel electrophoresis, amino acid analysis, and reverse phase high-performance liquid chromatography. The biological activity of TGF preparations and synthetic TGF was monitored by means of an EGF radioreceptor assay. (Todaro et al. (1976) Nature 264, 26.) Bone resorption was assessed by measuring the release of ^45 Ca from previously labeled fetal rat long bones. Pregnant rats at the 18th day of gestation were injected with 200 μCi of ^45 Ca. (Raisz (1975) J. Clin. Invest. 44, 103.) The mothers were killed on the 19th day of gestation, and the fetuses were removed. The mineralized shafts of the radii and ulnae were dissected free of surrounding tissue and cartilage and placed in organ culture. The bones were incubated in BGJb medium (Irvine Scientific) for 24 hours at 37° C. in a humidified atmosphere of 5 percent of CO2 and 95 percent air to allow for the exchange of loosely complexed ^45 Ca. The bones were then cultured for 48 to 120 hours in BGJb medium supplemented with 5 percent fetal calf serum (KC Biologicals) containing control or test substances. […] Statistical significance was determined with Student's t test for unpaired data.

antibody to TGF peptide = assay type: binding; settings: 125I-labeled TGF peptide
second degree burns = assay: Wound healing test on second degree burns (Example VI); assay type: in vivo, piglets; settings: Pig 3, right side, 9 days post-burn

With “EGF: mouse submaxillary gland epidermal growth factor” the “increase in DNA synthesis relative to unstimulated serum deprived cells” value (mink fibroblasts) was 59%, the “binding of 125I-labeled rat TGF to A431 cells” value [1] was “blocked” and the “inhibition of antibody reaction with BSA-TGF peptide” value (anti-KLH-peptide 1 IgG) was “did not cause significant inhibition”. The “highest concentration without inhibition of precipitation of 125I-peptide III” value [2] was “greater than 1 μM”, the “Relative Inhibitory Activity” value ([2]; half-maximal inhibitory concentration relative to peptide III, standard RIA, > = highest concentration tested) was over 1500 and the “stimulation of growth in soft agar” value [3] was “does not stimulate growth”. The “colonies in soft agar” value (normal rat kidney cells) was 120 colonies, the “amount required to inhibit EGF binding by 50%” value (EGF receptor; 0.4 ng 125I-EGF, 1 h at 22° C.) was 1.1 ng and the IC50 (EGF receptor; 125I-EGF at 0.33 nM (Example XI), read-out: concentration giving half-maximal inhibition of 125I-EGF binding) was 0.3 to 0.5 nM.
For “synthetic rTGF: rat TGF of the formula of Example II made by stepwise solid-phase synthesis, purified to homogeneity”, the “bone resorption during the first 48 hours of bone culture” value (fetal rat long bones) was “no significant bone resorption”, the “effective concentrations for bone resorption compared with EGF” value (fetal rat long bones) was “about one order of magnitude less than EGF” and the “time required to stimulate bone resorption” value (fetal rat long bones) was “at least 72 hours”. The “concentrations that stimulated bone resorption” value (fetal rat long bones; three separate experiments (Example XIII)) was “greater than 2 ng EGF equivalents/ml”, the “concentrations that stimulated bone resorption” value (fetal rat long bones; three separate experiments (Example XIV)) was “greater than 2 ng of EGF equivalents per milliliter” and the “antigen concentration for 50% displacement of antigen from antibody” value (antibody to TGF peptide) was 0.2-0.3 ng equivalents of EGF. The “approximate percentage of burn epithelialized” value (from here on “approximate percentage”) (second degree burns; 0.1 μg/ml in Silvadene) was 90%, the “approximate percentage” value (second degree burns; 0.5 μg/ml in Silvadene) was 65% and the “approximate percentage” value (second degree burns; 10 μg/ml in Silvadene) was 90%. The “inhibition of antibody reaction with BSA-TGF peptide” value (anti-KLH-peptide 1 IgG) was “slightly less”, the “inhibition of precipitation of 125I-peptide III, in words” value ([2]; compared with peptide III) was “equally effective” and the “colonies in soft agar” value (normal rat kidney cells) was 154 colonies.
